Data taken from paper PMC10112881 (Cell reports, 2023).
Where a name gives a salt, the structure may show the parent alone.

Assays:
HTR induced by DOI [1] = test: Tolerance to DOI-induced HTR after repeated treatment; settings: 10 mg/kg/day IP 7 days, DOI 1 mg/kg challenge 24 h later
head-twitch response [2] = test: Head-twitch response
head-twitch response [3] = settings: cited from earlier work
HTR induced by DOI [4] = test: Blockade of DOI-induced head-twitch response; settings: 0.025 or 0.25 mg/kg, DOI 1 mg/kg
5-HT4 = 5-HT4 (Homo sapiens, UniProt Q13639); test: G protein dissociation BRET assay; type: cell-based
[5] = tested on: rest of the histamine and muscarinic GPCRs; test: G protein dissociation BRET assay; type: cell-based, human
D3 = D3 (Homo sapiens, UniProt P35462); test: G protein dissociation BRET assay; type: cell-based; settings: relative to dopamine
D1/5 subtypes = test: G protein dissociation BRET assay; type: cell-based, human
33 human aminergic GPCRs = test: Pan-aminergic GPCR functional screen; type: cell-based; settings: of 33 aminergic GPCR targets tested
rat cortical neurons [6] = test: Spinogenesis in cultured cortical neurons; type: cell-based; settings: 10 μM, 3 h at DIV18, read 24 h after onset
rat cortical neurons [7] = test: Dendritogenesis; type: cell-based
Open field test = type: in vivo, C57BL/6J mice; settings: 0.125 mg/kg alone or with 2-Br-LSD 1 mg/kg
Forced swim test = type: in vivo, C57BL/6J mice; settings: 0.125 mg/kg before 2-Br-LSD 1 mg/kg, females and males

Sequence of D3 (P35462 whole entry): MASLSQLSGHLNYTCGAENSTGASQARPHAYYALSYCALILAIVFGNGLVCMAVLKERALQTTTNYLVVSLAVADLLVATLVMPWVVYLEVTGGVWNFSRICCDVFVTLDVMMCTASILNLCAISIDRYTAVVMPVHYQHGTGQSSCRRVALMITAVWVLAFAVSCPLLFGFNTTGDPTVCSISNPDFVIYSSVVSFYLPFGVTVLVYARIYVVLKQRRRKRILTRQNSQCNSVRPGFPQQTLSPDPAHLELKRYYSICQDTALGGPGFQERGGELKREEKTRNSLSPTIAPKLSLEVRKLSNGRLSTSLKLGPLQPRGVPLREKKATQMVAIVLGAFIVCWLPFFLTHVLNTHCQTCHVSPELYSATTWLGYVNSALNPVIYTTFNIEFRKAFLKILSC
Sequence of 5-HT4 (Q13639 whole entry): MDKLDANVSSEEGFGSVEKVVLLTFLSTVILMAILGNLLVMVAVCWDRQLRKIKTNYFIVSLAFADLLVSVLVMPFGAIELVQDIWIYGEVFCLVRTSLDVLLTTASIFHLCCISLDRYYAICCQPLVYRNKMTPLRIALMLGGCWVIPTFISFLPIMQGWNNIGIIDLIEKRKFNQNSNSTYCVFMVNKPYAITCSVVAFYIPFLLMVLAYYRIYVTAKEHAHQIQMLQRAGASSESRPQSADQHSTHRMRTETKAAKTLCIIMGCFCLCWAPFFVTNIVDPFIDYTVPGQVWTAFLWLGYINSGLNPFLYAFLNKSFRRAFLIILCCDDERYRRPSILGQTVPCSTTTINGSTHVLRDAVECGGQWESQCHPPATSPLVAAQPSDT

SMILES: COc1cc(CC(C)N)c(OC)cc1I.Cl (racemic) [DOI, (±)-2,5-Dimethoxy-4-iodoamphetamine hydrochloride, reference compound]
- tolerance on HTR after repeated treatment (HTR induced by DOI [1]): significant degree of tachyphylaxis

SMILES: COc1ccccc1N1CCN(CCN(C(=O)C2CCCCC2)c2ccccn2)CC1.O=C(O)/C=C\C(=O)O [WAY-100,635, N-[2-[4-(2-Methoxyphenyl)-1-piperazinyl]ethyl]-N-(2-pyridinyl)cyclohexanecarboxamide maleate, reference compound]
- effect of pre-treatment on the response to 2-Br-LSD in the HTR assay (head-twitch response [2]; 1 mg/kg WAY-100,635, then 2-Br-LSD 3 mg/kg): had no effect

SMILES: CCCN1CCC[C@@H]2Cc3n[nH]cc3C[C@H]21 [(–)-quinpirole, (–)-quinpirole hydrochloride, reference compound]
- effect on the HTR induced by LSD (head-twitch response [3]): does not alter the HTR
- reduction of the response to DOI (HTR induced by DOI [4]): ~ 20%

SMILES: CCN(CC)C(=O)[C@@H]1C=C2c3cccc4[nH]cc(c34)C[C@H]2N(C)C1.CCN(CC)C(=O)[C@@H]1C=C2c3cccc4[nH]cc(c34)C[C@H]2N(C)C1.O=C(O)C(O)C(O)C(=O)O [LSD, (+)-lysergic acid diethylamide (2:1) (+)-tartrate, reference compound]
- activity at 5-HT4 (5-HT4): lack potent agonist or antagonist activity
- agonism or antagonism at the rest of the histamine and muscarinic GPCRs [5]: neither 2-Br-LSD nor LSD possessed weak agonism or antagonism
- EMAX (D3): 75%
- agonism at D1/5 subtypes (D1/5 subtypes): demonstrates agonist activity
- number of aminergic GPCR targets with agonist activity (33 human aminergic GPCRs): 20
- induction of the HTR (head-twitch response [2]; 0.1 mg/kg IP, male C57BL/6J mice, 60 min): significant increase in HTR counts

SMILES: CNC1(c2ccccc2Cl)CCCCC1=O (stereo not drawn) [ketamine, Ketamine hydrochloride, reference compound]
- spine density (rat cortical neurons [6]): spine density increased

SMILES: COc1cccc([C@H](O)C2CCN(CCc3ccc(F)cc3)CC2)c1OC [Vol, volinanserin, reference compound]
- dendritic arbor complexity, administered alone (rat cortical neurons [7]; 0.1–1 μM): did not change any parameter linked to dendritic arbor complexity
- effect of pre-treatment on 2-Br-LSD-induced total dendrite length (rat cortical neurons [7]; before 2-Br-LSD 1 μM): blocked the increase in total dendrite length
- locomotion in the OF (Open field test): Neither Vol nor a combination of Vol and 2-Br-LSD affected locomotion
- effect of pre-treatment on 2-Br-LSD decrease in immobility (Forced swim test): blocked the decrease in immobility
